Test results published in PubChem BioAssay (NCI).
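In this assay, cells in 96-well plates receive the compound at five concentrations for 48 hours. Endpoints are linearly interpolated between the surrounding concentrations. TGI: concentration producing complete growth inhibition.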

How the values were obtained:
Experiment in all cases: inhibition of tumour cell growth, NCI panel, 48 h
[1] = system: 786-0 renal
[2] = system: A498 renal
[3] = system: A549 NSCLC
[4] = system: ACHN renal
[5] = system: CAKI-1 renal
[6] = system: CCRF-CEM leukemia
[7] = system: COLO 205 colon
[8] = system: DLD-1 colon
[9] = system: DMS 273 small cell lung
[10] = system: EKVX NSCLC
[11] = system: HCC-2998 colon
[12] = system: HCT-116 colon
[13] = system: HCT-15 colon
[14] = system: HL-60(TB) leukemia
[15] = system: HOP-62 NSCLC
[16] = system: HOP-92 NSCLC
[17] = system: HT29 colon
[18] = system: IGROV1 ovarian
[19] = system: K-562 leukemia
[20] = system: KM12 colon
[21] = system: KM20L2 colon
[22] = system: LOX IMVI melanoma
[23] = system: LXFL 529 NSCLC
[24] = system: M14 melanoma
[25] = system: M19-MEL melanoma
[26] = system: MALME-3M melanoma
[27] = system: MOLT-4 leukemia
[28] = system: NCI-H226 lung
[29] = system: NCI-H23 lung
[30] = system: NCI-H460 lung
[31] = system: NCI-H522 lung
[32] = system: OVCAR-3 ovarian
[33] = system: OVCAR-4 ovarian
[34] = system: OVCAR-5 ovarian
[35] = system: OVCAR-8 ovarian
[36] = system: RPMI-8226 leukemia
[37] = system: RXF 393 renal
[38] = system: RXF-631 renal
[39] = system: SF-268 CNS
[40] = system: SF-295 CNS
[41] = system: SF-539 CNS
[42] = system: SK-MEL-2 melanoma
[43] = system: SK-MEL-28 melanoma
[44] = system: SK-MEL-5 melanoma
[45] = system: SK-OV-3 ovarian
[46] = system: SN12C renal
[47] = system: SNB-19 CNS
[48] = system: SNB-75 CNS
[49] = system: SW-620 colon
[50] = system: TK-10 renal
[51] = system: U251 CNS
[52] = system: UACC-257 melanoma
[53] = system: UACC-62 melanoma
[54] = system: UO-31 renal
[55] = system: XF 498 CNS
[56] = system: DMS 114 small cell lung
[57] = system: HOP-18 NSCLC
[58] = system: SNB-78 CNS
[59] = system: SR leukemia

Measured: TGI

COC(=O)CC(C(C(=O)OC)C(=O)OC)N1C(=O)OCC1c1ccccc1 (stereo unspecified)
not listed: [56] | [57] | [58] | [59]
> 100 µM: all other assays above

Cc1cc2c(cc1C)[n+](=O)c(C(=O)CC(=O)C(=O)Nc1c(C(C)C)cccc1C(C)C)c(C)n2[O-]
not listed: [8] | [14] | [38]
> 100 µM: all other assays above
